In ChEMBL document CHEMBL2074048, “Identification of a region of the ileal-type sodium/bile acid cotransporter interacting with a competitive bile acid transport inhibitor” (Biochemistry, 2002) one finds Ki data, which are given here for 1 molecule.

The target of test [1] is T1, Ileal sodium/bile acid cotransporter (Homo sapiens, UniProt Q12908).
T1 sequence (Q12908 whole entry): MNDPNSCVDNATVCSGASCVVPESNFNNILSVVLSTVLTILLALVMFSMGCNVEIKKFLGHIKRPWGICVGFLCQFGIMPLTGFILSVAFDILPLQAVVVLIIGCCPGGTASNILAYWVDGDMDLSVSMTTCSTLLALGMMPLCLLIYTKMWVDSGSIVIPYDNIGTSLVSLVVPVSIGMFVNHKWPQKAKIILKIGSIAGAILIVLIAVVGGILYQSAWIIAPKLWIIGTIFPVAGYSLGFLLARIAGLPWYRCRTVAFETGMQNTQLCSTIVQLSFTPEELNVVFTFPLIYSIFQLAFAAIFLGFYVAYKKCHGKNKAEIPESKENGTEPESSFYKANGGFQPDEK
Description: (§1) TP_TRANSPORTER: inhibition of Taurocholate accumulation in ASBT-expressing HEK293 cells. It counts as functional, cell-based.

The target in test [2] is T2, Ileal sodium/bile acid cotransporter (Mus musculus, UniProt P70172).
T2 sequence (P70172 whole entry): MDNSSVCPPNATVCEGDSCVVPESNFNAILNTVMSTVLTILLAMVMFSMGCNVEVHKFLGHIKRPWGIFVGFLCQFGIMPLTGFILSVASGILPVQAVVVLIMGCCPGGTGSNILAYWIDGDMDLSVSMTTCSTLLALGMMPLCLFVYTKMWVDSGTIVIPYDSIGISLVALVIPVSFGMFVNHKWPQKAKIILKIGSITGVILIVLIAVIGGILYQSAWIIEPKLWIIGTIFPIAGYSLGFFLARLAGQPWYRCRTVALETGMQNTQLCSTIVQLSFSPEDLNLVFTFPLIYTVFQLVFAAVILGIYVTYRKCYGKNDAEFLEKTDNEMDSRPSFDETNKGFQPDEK
Described as §1. It counts as functional, cell-based.

Consider `CCCC[C@]1(CC)CS(=O)(=O)c2ccccc2[C@@H](c2ccccc2)N1`, for which the Ki in test [1] is 10 µM; in test [2], 0.068 µM.

Broadly, the Ki is the equilibrium dissociation constant of an inhibitor or competing ligand from its target.
